Where two headings read alike, the source gives them in different places.
Experiments:
Aurora-B kinase = Aurora-B kinase (Homo sapiens, UniProt Q96GD4); assay: Caliper Mobility Shift assay for inhibitory activity against aurora kinase (Aurora-B); assay type: biochemical; details: FAM-labeled polypeptide substrate, 25° C.
Description: (§1) The compounds were each subjected to gradient dilution from 10 μM to obtain a total of 10 concentrations. After the enzyme and kinase reaction solution (20 mM HEPES, pH 7.5, 0.01% Triton X-100) were mixed, the gradiently diluted compound was added. The mixture was incubate at room temperature for 10 min to allow the compound and enzyme to bind well. Then, FAM-labeled polypeptide was added as a substrate to carry out a kinase reaction at 25° C., and after a certain time, a stop solution was added.

Aurora-A kinase = target: T1, Aurora-A kinase (Homo sapiens, UniProt O14965); assay: Caliper Mobility Shift assay for inhibitory activity against aurora kinase (Aurora-A); assay type: biochemical; details: FAM-labeled polypeptide substrate, 25° C.
T1 sequence (O14965 1-403): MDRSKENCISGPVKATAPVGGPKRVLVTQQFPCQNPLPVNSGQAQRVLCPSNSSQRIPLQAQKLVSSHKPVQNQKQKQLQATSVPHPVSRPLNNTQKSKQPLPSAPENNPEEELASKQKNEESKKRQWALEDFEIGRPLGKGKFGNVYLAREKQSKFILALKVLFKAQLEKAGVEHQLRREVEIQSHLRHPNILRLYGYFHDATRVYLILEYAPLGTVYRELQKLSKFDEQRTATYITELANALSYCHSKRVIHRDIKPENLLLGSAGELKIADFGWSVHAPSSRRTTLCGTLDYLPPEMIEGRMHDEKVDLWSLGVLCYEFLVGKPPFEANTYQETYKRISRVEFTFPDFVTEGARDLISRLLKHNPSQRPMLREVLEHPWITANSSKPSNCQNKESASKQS
Description: as §1

[1] = test system: human small cell lung cancer H69 cells; assay: Anti-proliferation activity against H69 cells (ATP content, 72 h); assay type: cell-based
Description: Tumor cells (human small cell lung cancer H69 cells) in logarithmic growth phase were seeded into a 384-well culture plate at 4×10^3 cells per well, 50 μL of medium was added to each well, and the mixtures were cultured overnight in a 37° C./5% CO2 incubator. After the cells adhered to the wall, the test compounds and the positive control drug at proper concentrations were each added, and five samples with different concentrations were prepared. A blank group was taken as a negative control group, and the resulting mixtures were cultured in an incubator for 72 h. 50 μL of CTL plus was then added to each well, and the number of cells was evaluated by measuring ATP content in the cells.

[2] = test system: Human lung cancer H69 cells graft tumors; assay: Anti-tumor activity in nude mice bearing H69 graft tumors; assay type: in vivo; details: for in vivo anti-tumor activity compared with the positive control LY-3295668: 20 mg/kg bid*21, H69 graft tumors in nude mice, statement in words; for Anti-tumor effect: 20 mg/kg, bid*21, intragastric, suspension in 0.5% CMC-Na, NCI-H69 graft tumors in nude mice
Description: 1×10^7 H69 cells were injected into the right dorsal side of each nude mouse, and the animals were randomly grouped for administration after tumors grew to 150 mm^3. […] On Tuesday and Thursday each week, tumor volumes and body weight of mice were measured, and the nude mice were sacrificed on day 21 of administration.

Chain of Aurora-B kinase (Q96GD4 whole entry): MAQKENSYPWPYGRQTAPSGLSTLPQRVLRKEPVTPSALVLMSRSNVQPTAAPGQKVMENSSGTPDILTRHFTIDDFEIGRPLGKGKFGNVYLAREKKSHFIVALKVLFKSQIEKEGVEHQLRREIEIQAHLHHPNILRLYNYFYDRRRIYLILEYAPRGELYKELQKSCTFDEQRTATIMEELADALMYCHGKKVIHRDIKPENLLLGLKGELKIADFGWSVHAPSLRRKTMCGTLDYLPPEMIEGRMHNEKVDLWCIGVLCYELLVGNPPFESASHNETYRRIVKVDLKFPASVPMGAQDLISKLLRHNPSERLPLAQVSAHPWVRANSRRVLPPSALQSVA

SMILES | IC50 (Aurora-B kinase) [nM] | IC50 (Aurora-A kinase) [nM] | IC50 ([1]; Homo sapiens, NCI-H69, 72 h) [nM] | IC50 [1] [nM] | in vivo anti-tumor activity compared with the positive control LY-3295668 [2] | Anti-tumor effect [2] [% shrinking]
O=C(O)C1(Cc2nc(Nc3nccs3)ccc2F)CCN(Cc2cccc(Cl)c2F)C(C(F)(F)F)C1 (centres unmarked) [Compound 1, 1-(3-chloro-2-fluorobenzyl)-4-((3-fluoro-6-(thiazol-2-ylamino)pyridin-2-yl)methyl)-2-(trifluoromethyl)piperidine-4-carboxylic acid] | 148 | 0.53 | 11 | – | significantly increased in vivo anti-tumor activity | 29
CCOCC1CC(Cc2nc(Nc3nccs3)ccc2F)(C(=O)O)CCN1Cc1cccc(Cl)c1F (centres unmarked) [Compound 7, 1-(3-chloro-2-fluorobenzyl)-2-(ethoxymethyl)-4-((3-fluoro-6-(thiazol-2-ylamino)pyridin-2-yl)methyl)piperidine-4-carboxylic acid] | 286 | 0.74 | 52 | – | – | –
Cc1cnc(Nc2ccc(F)c(CC3(C(=O)O)CCN(Cc4cccc(Cl)c4F)C(C(F)(F)F)C3)n2)s1 (centres unmarked) [Compound 13, 1-(3-chloro-2-fluorobenzyl)-4-((3-fluoro-6-(5-methylthiazol-2-ylamino)pyridin-2-yl)methyl)-2-(trifluoromethyl)piperidine-4-carboxylic acid] | 113 | 0.64 | 590 | – | – | –
CCC1CC(Cc2nc(Nc3nccs3)ccc2F)(C(=O)O)CCN1Cc1cccc(Cl)c1F (centres unmarked) [Compound 5, 1-(3-chloro-2-fluorobenzyl)-2-ethyl-4-((3-fluoro-6-(thiazol-2-ylamino)pyridin-2-yl)methyl)piperidine-4-carboxylic acid] | 140 | 0.82 | – | 33 | – | 9
COCC1CC(Cc2nc(Nc3nccs3)ccc2F)(C(=O)O)CCN1Cc1cccc(Cl)c1F (centres unmarked) [Compound 6, 1-(3-chloro-2-fluorobenzyl)-4-((3-fluoro-6-(thiazol-2-ylamino)pyridin-2-yl)methyl)-2-(methoxymethyl)piperidine-4-carboxylic acid] | 78 | 0.57 | 49 | – | significantly increased in vivo anti-tumor activity | 30
O=C(O)C1(Cc2nc(Nc3nccs3)ccc2F)CCN(Cc2cccc(Cl)c2F)C(CF)C1 (centres unmarked) [Compound 11, 1-(3-chloro-2-fluorobenzyl)-4-((3-fluoro-6-(thiazol-2-ylamino)pyridin-2-yl)methyl)-2-(fluoromethyl)piperidine-4-carboxylic acid] | 128 | 2.4 | 19 | – | – | –

Further lines, with some results ahead:

IC50 (Aurora-B kinase) [nM] | IC50 (Aurora-A kinase) [nM] | IC50 ([1]; Homo sapiens, NCI-H69, 72 h) [nM] | IC50 [1] [nM] | SMILES | in vivo anti-tumor activity compared with the positive control LY-3295668 [2] | Anti-tumor effect [2] [% shrinking]
90 | 1.3 | 24 | – | CCC1CC(Cc2nc(Nc3nccs3)ccc2F)(C(=O)O)CCN1Cc1cccc(Cl)c1F (centres unmarked) [Compound 29, 1-(3-chloro-2-fluorobenzyl)-2-ethyl-4-((3-fluoro-6-(thiazol-2-ylamino)pyridin-2-yl)methyl)piperidine-4-carboxylic acid] | – | –
> 3000 | 0.78 | 98 | – | COCC1CC(Cc2nc(Nc3cc(C)[nH]n3)ccc2F)(C(=O)O)CCN1Cc1cccc(Cl)c1F (centres unmarked) [Compound 25, 1-(3-chloro-2-fluorobenzyl)-4-((3-fluoro-6-((5-methyl-1H-pyrazol-3-yl)amino)pyridin-2-yl)methyl)-2-(methoxymethyl)piperidine-4-carboxylic acid] | – | –
2470 | 0.57 | 58 | – | COCC1CC(Cc2nc(Nc3ncc(C)s3)ccc2F)(C(=O)O)CCN1Cc1cccc(Cl)c1F (centres unmarked) [Compound 23, 1-(3-chloro-2-fluorobenzyl)-4-((3-fluoro-6-(5-methylthiazol-2-ylamino)pyridin-2-yl)methyl)-2-(methoxymethyl)piperidine-4-carboxylic acid] | – | –
> 3000 | 3.1 | 219 | – | CCC1CC(Cc2nc(Nc3cc(C)[nH]n3)ccc2F)(C(=O)O)CCN1Cc1cccc(Cl)c1F (centres unmarked) [Compound 19, 1-(3-chloro-2-fluorobenzyl)-2-ethyl-4-((3-fluoro-6-((5-methyl-1H-pyrazol-3-yl)amino)pyridin-2-yl)methyl)piperidine-4-carboxylic acid] | – | –
1490 | 0.62 | 770 | – | Cc1cc(Nc2ccc(F)c(CC3(C(=O)O)CCN(Cc4cccc(Cl)c4F)C(C(F)(F)F)C3)n2)n[nH]1 (centres unmarked) [Compound 15, 1-(3-chloro-2-fluorobenzyl)-4-((3-fluoro-6-((5-methyl-1H-pyrazol-3-yl)amino)pyridin-2-yl)methyl)-2-(trifluoromethyl)piperidine-4-carboxylic acid] | – | –

— patent publication US12275726B2, “Aurora kinase inhibitors and use thereof” (WIGEN BIOMEDICINE TECHNOLOGY (SHANGHAI) CO., LTD., priority 2019, dated 2025)
